Experimental data taken from ChEMBL document CHEMBL2396562, “Synthesis and SAR of potent and selective tetrahydropyrazinoisoquinolinone 5-HT(2C) receptor agonists” (Bioorg Med Chem Lett, 2013).

How the values were obtained:
in vivo [1] = conditions: Sprague-Dawley, rat, po, 10 mg/kg
in vivo [2] = conditions: Sprague-Dawley, rat, po, 10 mg/kg; remark: listed apart in the source
in vivo [3] = conditions: Sprague-Dawley, rat, brain/plasma, po, 10 mg/kg

For `CCc1cccc2c1C[C@@H]1CNCCN1C2=O`, the AUC(0-t) at 4 h (in vivo [1]) was 9.64 µM·h, the Cmax (in vivo [2]) was 3.62 µM and the Kp (in vivo [3]) was 3.9.
